# Reference: patent US10168342B2, “Lipid probes and uses thereof” (THE SCRIPPS RESEARCH INSTITUTE, priority 2015, dated 2019)
# Like-named read-outs stand apart in the source and are kept apart here.
# Key:
# [1] = biological target: T1, AEA-DA lipid probe targets in Neuro2a cells (Mus musculus, UniProt Q8VHE0)
# T1 sequence (Q8VHE0 1-760): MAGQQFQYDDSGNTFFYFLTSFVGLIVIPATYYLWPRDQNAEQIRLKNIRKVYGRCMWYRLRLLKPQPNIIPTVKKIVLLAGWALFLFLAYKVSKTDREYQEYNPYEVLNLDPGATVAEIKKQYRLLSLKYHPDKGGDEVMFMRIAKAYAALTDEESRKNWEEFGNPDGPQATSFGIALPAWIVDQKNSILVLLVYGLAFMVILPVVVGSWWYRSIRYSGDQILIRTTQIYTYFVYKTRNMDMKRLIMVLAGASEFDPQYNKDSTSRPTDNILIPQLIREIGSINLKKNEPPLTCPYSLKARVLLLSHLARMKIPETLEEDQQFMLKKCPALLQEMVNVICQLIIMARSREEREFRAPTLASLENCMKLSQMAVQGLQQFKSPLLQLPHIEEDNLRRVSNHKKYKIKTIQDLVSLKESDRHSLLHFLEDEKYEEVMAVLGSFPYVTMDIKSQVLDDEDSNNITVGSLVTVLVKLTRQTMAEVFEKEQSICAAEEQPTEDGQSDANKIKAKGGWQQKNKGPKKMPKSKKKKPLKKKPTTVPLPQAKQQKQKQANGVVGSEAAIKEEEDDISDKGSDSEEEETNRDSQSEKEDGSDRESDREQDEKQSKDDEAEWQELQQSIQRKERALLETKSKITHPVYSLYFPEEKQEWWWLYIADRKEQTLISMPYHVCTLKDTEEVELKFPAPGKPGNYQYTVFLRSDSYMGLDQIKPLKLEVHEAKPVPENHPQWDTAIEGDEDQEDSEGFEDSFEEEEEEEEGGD
# [2] = biological target: T2, AEA-DA lipid probe targets in Neuro2a cells (Mus musculus, UniProt P21995)
# T2 sequence (P21995 34-330): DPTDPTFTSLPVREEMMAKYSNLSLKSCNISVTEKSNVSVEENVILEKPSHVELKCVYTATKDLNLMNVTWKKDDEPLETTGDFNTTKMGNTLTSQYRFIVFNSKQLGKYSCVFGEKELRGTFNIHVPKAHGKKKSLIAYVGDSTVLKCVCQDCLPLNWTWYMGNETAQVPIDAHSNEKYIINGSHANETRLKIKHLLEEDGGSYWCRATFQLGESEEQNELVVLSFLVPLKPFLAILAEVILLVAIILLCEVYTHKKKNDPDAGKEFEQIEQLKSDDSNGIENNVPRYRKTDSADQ
# [3] = biological target: T3, AEA-DA lipid probe targets in Neuro2a cells (Mus musculus, UniProt Q9EQI8)
# T3 sequence (Q9EQI8 1-283): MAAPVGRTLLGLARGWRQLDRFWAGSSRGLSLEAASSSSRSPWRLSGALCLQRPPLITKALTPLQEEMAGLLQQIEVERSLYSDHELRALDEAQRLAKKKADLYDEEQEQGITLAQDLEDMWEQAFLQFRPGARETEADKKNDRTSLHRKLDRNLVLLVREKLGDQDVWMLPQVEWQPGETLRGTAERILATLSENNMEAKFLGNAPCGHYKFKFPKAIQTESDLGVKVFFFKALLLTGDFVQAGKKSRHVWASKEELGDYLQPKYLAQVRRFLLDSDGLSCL
# [4] = biological target: AEA-DA lipid probe targets in Neuro2a cells (Mus musculus, UniProt Q8BMS1)
# Chain of AEA-DA lipid probe targets in Neuro2a cells (Mus musculus, UniProt Q8BMS1) (Q8BMS1 37-763): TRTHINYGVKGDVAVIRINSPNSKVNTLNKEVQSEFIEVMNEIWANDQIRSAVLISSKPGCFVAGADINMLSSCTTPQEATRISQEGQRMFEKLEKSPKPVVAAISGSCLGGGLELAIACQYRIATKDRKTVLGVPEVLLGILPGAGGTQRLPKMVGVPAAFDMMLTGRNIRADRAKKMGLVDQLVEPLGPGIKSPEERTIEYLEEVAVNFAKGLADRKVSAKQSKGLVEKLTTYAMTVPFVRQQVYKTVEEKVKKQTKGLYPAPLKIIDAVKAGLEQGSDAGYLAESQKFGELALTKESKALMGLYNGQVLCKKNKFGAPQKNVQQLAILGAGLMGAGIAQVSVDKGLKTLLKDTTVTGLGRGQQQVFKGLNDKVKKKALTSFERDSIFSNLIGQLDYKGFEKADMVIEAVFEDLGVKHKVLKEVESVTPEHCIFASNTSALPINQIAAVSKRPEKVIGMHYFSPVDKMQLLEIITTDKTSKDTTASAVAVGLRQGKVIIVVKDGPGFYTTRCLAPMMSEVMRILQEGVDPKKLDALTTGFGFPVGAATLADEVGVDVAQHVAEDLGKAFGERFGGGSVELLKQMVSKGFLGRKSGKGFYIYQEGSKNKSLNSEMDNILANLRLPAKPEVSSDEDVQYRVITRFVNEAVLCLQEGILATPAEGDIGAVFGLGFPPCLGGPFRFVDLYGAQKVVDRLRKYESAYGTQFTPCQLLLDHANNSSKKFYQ
# [5] = biological target: T4, AEA-DA lipid probe targets in Neuro2a cells (Mus musculus, UniProt Q91XD7)
# T4 sequence (Q91XD7 30-420): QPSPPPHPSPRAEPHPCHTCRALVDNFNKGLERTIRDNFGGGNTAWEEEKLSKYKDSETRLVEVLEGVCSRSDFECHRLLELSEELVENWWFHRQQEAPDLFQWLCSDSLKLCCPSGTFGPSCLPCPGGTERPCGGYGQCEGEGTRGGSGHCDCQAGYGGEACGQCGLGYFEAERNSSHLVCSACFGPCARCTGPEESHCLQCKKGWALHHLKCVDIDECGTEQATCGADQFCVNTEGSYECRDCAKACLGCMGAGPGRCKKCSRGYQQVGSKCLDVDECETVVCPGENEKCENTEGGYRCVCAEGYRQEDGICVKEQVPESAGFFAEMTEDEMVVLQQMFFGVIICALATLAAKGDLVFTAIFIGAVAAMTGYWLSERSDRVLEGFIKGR
# [6] = biological target: AEA-DA lipid probe targets in Neuro2a cells (Mus musculus, UniProt Q91VE6)
# Chain of AEA-DA lipid probe targets in Neuro2a cells (Mus musculus, UniProt Q91VE6) (Q91VE6 whole entry): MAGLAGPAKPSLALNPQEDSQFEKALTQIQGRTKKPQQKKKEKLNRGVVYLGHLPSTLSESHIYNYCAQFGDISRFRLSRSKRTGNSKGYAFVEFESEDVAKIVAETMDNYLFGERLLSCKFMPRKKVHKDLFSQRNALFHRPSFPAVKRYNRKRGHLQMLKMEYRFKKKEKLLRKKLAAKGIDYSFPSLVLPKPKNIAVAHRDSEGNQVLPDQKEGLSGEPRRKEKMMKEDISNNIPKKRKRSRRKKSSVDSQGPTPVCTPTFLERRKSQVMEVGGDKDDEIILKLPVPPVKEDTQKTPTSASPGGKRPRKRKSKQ
# [7] = biological target: T5, AEA-DA lipid probe targets in Neuro2a cells (Mus musculus, UniProt Q8R127)
# T5 sequence (Q8R127 1-429): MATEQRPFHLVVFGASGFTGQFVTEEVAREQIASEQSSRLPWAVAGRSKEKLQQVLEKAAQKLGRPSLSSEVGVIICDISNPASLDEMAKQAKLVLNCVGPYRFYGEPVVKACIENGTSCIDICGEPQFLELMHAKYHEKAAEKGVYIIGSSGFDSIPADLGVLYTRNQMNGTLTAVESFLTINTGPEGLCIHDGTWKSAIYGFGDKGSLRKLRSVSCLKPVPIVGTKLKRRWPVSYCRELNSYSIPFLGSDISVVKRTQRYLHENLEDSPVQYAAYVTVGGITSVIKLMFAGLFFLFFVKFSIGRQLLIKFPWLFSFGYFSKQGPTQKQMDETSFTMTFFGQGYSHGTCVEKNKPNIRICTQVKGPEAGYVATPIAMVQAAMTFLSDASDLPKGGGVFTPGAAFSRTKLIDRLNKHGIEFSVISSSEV
structure (smiles),measurement,setting,value
"CCCCC/C=C\C/C=C\C/C=C\C/C=C\CCCC(=O)NCCO [AEA, anandamide, reference compound]",SILAC ratio Sec63,[1]; competitor 200 μM,1.5
same,"SILAC ratio, Emb",[2]; competitor 200 μM,1.8
same,SILAC ratio Mrpl46,[3]; competitor 200 μM,1.3
same,"SILAC ratio, Hadha",[4]; competitor 200 μM,2.3
same,"SILAC ratio, Creld1",[5]; competitor 200 μM,1.8
same,SILAC ratio Mki67ip,[6]; competitor 200 μM,1.4
same,"SILAC ratio, Sccpdh",[7]; competitor 200 μM,3.4
"O=C(/C=C/c1cccnc1)NCCCCC1CCN(C(=O)c2ccccc2)CC1 [FK-866, reference compound]",SILAC ratio Sec63,[1]; competitor 25 μM,1.1
same,"SILAC ratio, Emb",[2]; competitor 25 μM,1.3
same,SILAC ratio Mrpl46,[3]; competitor 25 μM,1.3
same,"SILAC ratio, Hadha",[4]; competitor 25 μM,6.2
same,"SILAC ratio, Creld1",[5]; competitor 25 μM,1.3
same,SILAC ratio Mki67ip,[6]; competitor 25 μM,1.0
same,"SILAC ratio, Sccpdh",[7]; competitor 25 μM,7.3
"CN1CCN(C(=O)c2c(-c3ccccc3)c3cc([N+](=O)[O-])ccc3n2C)CC1 [KML110, (1-Methyl-5-nitro-3-phenyl-1H-indol-2-yl)(4-methylpiperazin-1-yl)methanone]",SILAC ratio Sec63,[1]; competitor 25 μM,1.5
same,"SILAC ratio, Emb",[2]; competitor 25 μM,1.8
same,SILAC ratio Mrpl46,[3]; competitor 25 μM,1.3
same,"SILAC ratio, Hadha",[4]; competitor 25 μM,2.0
same,"SILAC ratio, Creld1",[5]; competitor 25 μM,1.8
same,SILAC ratio Mki67ip,[6]; competitor 25 μM,1.5
same,"SILAC ratio, Sccpdh",[7]; competitor 25 μM,2.6
"CN1CCN(C(=O)c2[nH]c3ccc([N+](=O)[O-])cc3c2-c2ccccc2)CC1 [MJN228, (4-Methylpiperazin-1-yl)(5-nitro-3-phenyl-1H-indol-2-yl)methanone]",SILAC ratio Sec63,[1]; competitor 10 μM,1.4
same,SILAC ratio Sec63,[1]; competitor 25 μM,1.5
same,SILAC ratio Sec63,[1]; competitor 50 μM,1.8
same,SILAC ratio Sec63,[1]; competitor 100 μM,1.8
same,"SILAC ratio, Emb",[2]; competitor 10 μM,1.3
same,"SILAC ratio, Emb",[2]; competitor 25 μM,1.7
same,"SILAC ratio, Emb",[2]; competitor 50 μM,1.4
same,"SILAC ratio, Emb",[2]; competitor 100 μM,2.2
same,SILAC ratio Mrpl46,[3]; competitor 10 μM,1.0
same,SILAC ratio Mrpl46,[3]; competitor 25 μM,1.3
same,SILAC ratio Mrpl46,[3]; competitor 50 μM,1.0
same,SILAC ratio Mrpl46,[3]; competitor 100 μM,1.3
same,"SILAC ratio, Hadha",[4]; competitor 10 μM,1.4
same,"SILAC ratio, Hadha",[4]; competitor 25 μM,1.7
same,"SILAC ratio, Hadha",[4]; competitor 50 μM,2.0
same,"SILAC ratio, Hadha",[4]; competitor 100 μM,2.9
same,"SILAC ratio, Creld1",[5]; competitor 10 μM,1.4
same,"SILAC ratio, Creld1",[5]; competitor 25 μM,1.8
same,"SILAC ratio, Creld1",[5]; competitor 50 μM,2.4
same,"SILAC ratio, Creld1",[5]; competitor 100 μM,4.2
same,SILAC ratio Mki67ip,[6]; competitor 10 μM,1.2
same,SILAC ratio Mki67ip,[6]; competitor 25 μM,1.5
same,SILAC ratio Mki67ip,[6]; competitor 50 μM,1.8
same,SILAC ratio Mki67ip,[6]; competitor 100 μM,2.3
same,"SILAC ratio, Sccpdh",[7]; competitor 10 μM,1.4
same,"SILAC ratio, Sccpdh",[7]; competitor 25 μM,2.1
same,"SILAC ratio, Sccpdh",[7]; competitor 50 μM,3.3
same,"SILAC ratio, Sccpdh",[7]; competitor 100 μM,5.9
"C=CCN(C)CCCCCCOc1ccc(C(=O)c2ccc(Br)cc2)c(F)c1 [Ro 48-8071, reference compound]",SILAC ratio Sec63,[1]; competitor 25 μM,1.0
same,"SILAC ratio, Emb",[2]; competitor 25 μM,1.1
same,SILAC ratio Mrpl46,[3]; competitor 25 μM,0.9
same,"SILAC ratio, Hadha",[4]; competitor 25 μM,1.0
same,"SILAC ratio, Creld1",[5]; competitor 25 μM,1.4
same,SILAC ratio Mki67ip,[6]; competitor 25 μM,1.0
same,"SILAC ratio, Sccpdh",[7]; competitor 25 μM,1.6
